Data: article PMC4012000 (Pharmaceutical research, 2013)

Tested on: Caco-2 cells
Assay: Effect of curcumin on efflux transporters and permeability in Caco-2 cells
Type: cell-based
Details: in vitro studies, data not shown

## COc1cc(/C=C/C(=O)CC(=O)/C=C/c2ccc(O)c(OC)c2)ccc1O [curcumin, Curcumin]
  effect on efflux transporters: down-regulation of BCRP, MDR1 and MRP1
